Results reported in the NIST ThermoML archive (doi:10.1016/j.jct.2018.08.021).
Numbers after ± are expanded uncertainties.

Assay: osmotic coefficient (dimensionless); mn = molality of the nth substance listed, in mol/kg
Conditions: 303.15 K, 101.3 kPa, Liquid, Vapor-pressure osmometry (Knauer K-7000)

For `NC(=O)c1ccc[n+]([C@@H]2O[C@H](COP(=O)([O-])OP(=O)(O)OC[C@H]3O[C@@H](n4cnc5c(N)ncnc54)[C@H](O)[C@@H]3O)[C@@H](O)[C@H]2O)c1` [β-nicotinamide adenine dinucleotide] + O, which osmotic coefficient (m1 = 0.0476) is on record?
Its osmotic coefficient is 0.809 ± 0.064.

What about the osmotic coefficient (m1 = 0.0572) of the same compound?
The osmotic coefficient was 0.804 ± 0.065.

And the osmotic coefficient (m1 = 0.0765)?
The osmotic coefficient was 0.771 ± 0.066.

What about the osmotic coefficient (m1 = 0.0951) of the same compound?
Its osmotic coefficient is 0.73 ± 0.067.
